Data published in PMC5643462, “Encrypted Antimicrobial Peptides from Plant Proteins” (Scientific Reports, 2017).
In brackets after ≈: the same amount, converted by molar mass. Like-named read-outs stand apart in the source and are kept apart here. No end group written: not given here.

Experiments:
[1] = tested on: Candida albicans; assay: microbe, parasite or virus in culture; details: for Minimum inhibitory concentration, Candida albicans: ATCC 90028, RPMI 1640 pH 7.0, 37 °C, 48 h, start 2.5 x 10^3 cells, 256-0.5 µM, mean ± SD of 3 biological repetitions (SD 0 not displayed), no cells seen by optical microscopy, N/A = no antimicrobial activity observed
Experimental: (§1) The susceptibility test of microorganisms was performed to evaluate the inhibitory activity of the IAPs. Protocols M7-A10[50], M27-A3[51] and M38-A2[52] from Clinical & Laboratory Standards Institute (CLSI) were used for bacteria, yeasts and filamentous fungi tests, respectively. Briefly, different concentration of IAPs (256-0.5 µM) were tested against 16 microorganisms, in a final volume of 100 µL. Media conditions, final cell concentration and incubation conditions are presented in Supplementary Material 07, Table S5. Three biological repetitions, with 2 technical replicates each, were performed for each test, on polystyrene flat-bottom 96 wells microplates. The minimum inhibitory concentration (MIC) was defined as the concentration that no cells/hyphae were detected when visualized by optical microscopy.
(§2) Supplementary Material 07, Table S5
(§3) Table S5. Microorganisms and growth conditions.

[2] = tested on: Cryptococcus neoformans; assay: microbe, parasite or virus in culture; details: for Minimum inhibitory concentration, Cryptococcus neoformans: ATCC 28957, RPMI 1640 pH 7.0, 37 °C, 72 h, start 2.5 x 10^3 cells, 256-0.5 µM, mean ± SD of 3 biological repetitions (SD 0 not displayed), N/A = no antimicrobial activity observed
Experimental: as §1, §2, §3

[3] = tested on: Bacillus cereus; assay: microbe, parasite or virus in culture; details: ATCC 14579; Mueller-Hinton; 37 °C, 24 h; start 5.0 x 10^5 cells; 256-0.5 µM; mean ± SD of 3 biological repetitions (SD 0 not displayed); N/A = no antimicrobial activity observed
Experimental: as §1, §2, §3

[4] = tested on: Staphylococcus aureus; assay: microbe, parasite or virus in culture; details: ATCC 25923; Mueller-Hinton; 37 °C, 24 h; start 5.0 x 10^5 cells; 256-0.5 µM; mean ± SD of 3 biological repetitions (SD 0 not displayed); N/A = no antimicrobial activity observed
Experimental: as §1, §2, §3

[5] = tested on: Pseudomonas aeruginosa; assay: microbe, parasite or virus in culture; details: ATCC 27853; Mueller-Hinton; 37 °C, 24 h; start 5.0 x 10^5 cells; 256-0.5 µM; mean ± SD of 3 biological repetitions (SD 0 not displayed); N/A = no antimicrobial activity observed
Experimental: as §1, §2, §3

[6] = tested on: Escherichia coli; assay: microbe, parasite or virus in culture; details: ATCC 25922; Mueller-Hinton; 37 °C, 24 h; start 5.0 x 10^5 cells; 256-0.5 µM; mean ± SD of 3 biological repetitions (SD 0 not displayed); N/A = no antimicrobial activity observed
Experimental: as §1, §2, §3

[7] = tested on: Bacillus subtilis; assay: microbe, parasite or virus in culture; details: ATCC 23857; Mueller-Hinton; 37 °C, 24 h; start 5.0 x 10^5 cells; 256-0.5 µM; mean ± SD of 3 biological repetitions (SD 0 not displayed); N/A = no antimicrobial activity observed
Experimental: as §1, §2, §3

[8] = tested on: human red blood cells; assay: Cytotoxicity: hemolysis of human red blood cells; type: cell-based; details: for Concentration that induced 50% hemolysis: red cells of human
Experimental: The cytotoxicity of the selected IAPS was performed using human red blood cells in strict accordance with relevant guidelines and regulations (Ethical committee – UnB # 1.939.989). Different concentrations of IAPs (128 µM–0.5 µM) were incubated with a final concentration of 2.5 × 10^5 red blood cells.mL^−1. Briefly, 100 µL of red blood cells was incubated with 100 µL of different concentrations of each IAP, prepared in PBS, for 30 minutes at 37 °C, with constant shaking at 120 rpm. PBS and Triton X-100 0.1% (v/v) were used as negative and positive controls, respectively. After incubation, the solution was centrifuged at 900 × g for five minutes followed by transferring 50 µL of the supernatant to flat-bottom polystyrene 96-well micro plates containing 50 µL of PBS. Microplate reading was performed at a BioTek Multireader, using a wavelength of 540 nm. All tests were performed in 3 biological replicates, composed of 3 biological repetitions each. The obtained data was subtracted by the negative control and relative to the positive control, defined as 100% lysis.

[9] = tested on: Moniliophthora perniciosa basidiospores; assay: Inhibition of M. perniciosa basidiospore germination; type: cell-based; details: 1 × 10^6 basidiospores mL^−1, one hour with peptide (256-0.5 µM), 24 °C, counted after 4 hours on agar slides, biological triplicates; for IC50: concentration at which at least 50% of basidiospores germination was inhibited, read-out: Inhibitory concentration IC50, M. perniciosa basidiospores germination; for Inhibitory concentration IC95, M. perniciosa basidiospores germination: concentration at which at least 95% of basidiospores germination was inhibited
Experimental: The antimicrobial potential of T. cacao IAPs for inhibiting M. perniciosa basidiospores was evaluated. Briefly, 1 × 10^6 basidiospores mL^−1 were incubated for one hour with different concentrations of T. cacao IAPs (256-0.5 µM), at 24 °C, in a final volume of 100 µL. Autoclaved dH20 was used as a control. After incubation, 3 droplets of 10 µL each were placed in a slide coated with agar (1.2% (w/v)). Slides were incubated for 4, 24 and 48 hours at 24 °C. Slides were visualized using a DMRXA light microscope (Leica). Approximately 150–200 basidiospores per droplet from each time point were counted and compared to the control condition, which was defined as 100% germination. All experiments were performed in biological triplicates, with 3 technical repetitions each.

[10] = SC50 = IAP concentration that at least 50% of red blood cells remain intact, 128 µM–0.5 µM tested, PBS, 30 minutes, 37 °C, absorbance 540 nm

OC(Cn1cncn1)(Cn1cncn1)c1ccc(F)cc1F [Fluconazole, reference compound] showed an MIC ([1]; Candida albicans, ATCC90028, 48 h, pH 7, read-out: Minimum inhibitory concentration, Candida albicans) of 1.63 µM (≈ 0.499 µg/mL) and an MIC ([2]; Cryptococcus neoformans, ATCC28957, 72 h, pH 7, read-out: Minimum inhibitory concentration, Cryptococcus neoformans) of 1.63 µM (≈ 0.499 µg/mL).
In the case of GFKLGRKLVKVFKWII-NH2 [Gr01], the “Minimum inhibitory concentration, Bacillus cereus” value [3] is reported as 1.0 µM, the “Minimum inhibitory concentration, Staphylococcus aureus” value [4] is reported as 0.83 ± 0.29 µM and the “Minimum inhibitory concentration, Pseudomonas aeruginosa” value [5] is reported as 3.33 ± 1.15 µM. The “Minimum inhibitory concentration, Candida albicans” value [1] was 1.0 µM, the “Minimum inhibitory concentration, Escherichia coli” value [6] was 0.5 µM and the “Minimum inhibitory concentration, Cryptococcus neoformans” value [2] was 1.0 µM. For the same molecule, the “Minimum inhibitory concentration, Bacillus subtilis” value [7] was 1.0 µM, the “Hemolytic activity (% ± SD) at 1 µM” value [8] was 0.09 ± 0.01% and the “Hemolytic activity (% ± SD) at 2 µM” value [8] was 0.00 ± 0.00%. For the same molecule, the “Hemolytic activity (% ± SD) at 4 µM” value [8] was 0.30 ± 0.15%, the “Hemolytic activity (% ± SD) at 8 µM” value [8] was 1.96 ± 0.89% and the “Hemolytic activity (% ± SD) at 16 µM” value [8] was 3.82 ± 1.28%. The “Hemolytic activity (% ± SD) at 32 µM” value [8] was 11.33 ± 1.66%, the “Hemolytic activity (% ± SD) at 64 µM” value [8] was 33.9 9 ± 5.46% and the “Hemolytic activity (% ± SD) at 128 µM” value [8] was 51.72 ± 7.33%. The “Hemolytic activity of human red blood cells (%) SC50” value (from here on “Hemolytic activity … (%) SC50”) [8] was 64 µM and the “Concentration that induced 50% hemolysis” value [8] was 64 µM.
In the case of GKILKYLLYLLRKYANLIIR-NH2 [Tc02], the IC50 [9] is reported as 8 µM, the “Inhibitory concentration IC95, M. perniciosa basidiospores germination” value (“Inhibitory concentration IC95” below) [9] is reported as 16 µM and the “Hemolytic activity (% ± SD) at 1 µM” value [8] is reported as 0.00 ± 0.00%. For the same molecule, the “Hemolytic activity (% ± SD) at 2 µM” value [8] was 0.00 ± 0.00%, the “Hemolytic activity (% ± SD) at 4 µM” value [8] was 0.40 ± 0.26% and the “Hemolytic activity (% ± SD) at 8 µM” value [8] was 2.89 ± 1.12%. For the same molecule, the “Hemolytic activity (% ± SD) at 16 µM” value [8] was 6.30 ± 1.59%, the “Hemolytic activity (% ± SD) at 32 µM” value [8] was 17.39 ± 1.15% and the “Hemolytic activity (% ± SD) at 64 µM” value [8] was 29.15 ± 2.57%. The “Hemolytic activity (% ± SD) at 128 µM” value [8] was 50.15 ± 5.15%, the “Hemolytic activity … (%) SC50” value [8] was 64 µM and the “Concentration that induced 50% hemolysis” value [8] was 64 µM.
GLLFKELQKLIRYQIFIGK-NH2 [Tc10] was tested, and the IC50 [9] was 32 µM, the “Inhibitory concentration IC95” value [9] was 64 µM and the “Hemolytic activity (% ± SD) at 1 µM” value [8] was 0.00 ± 0.0%. For the same molecule, the “Hemolytic activity (% ± SD) at 2 µM” value [8] was 0.00 ± 0.0%, the “Hemolytic activity (% ± SD) at 4 µM” value [8] was 0.18 ± 0.04% and the “Hemolytic activity (% ± SD) at 8 µM” value [8] was 0.06 ± 0.02%. For the same molecule, the “Hemolytic activity (% ± SD) at 16 µM” value [8] was 0.00 ± 0.00%, the “Hemolytic activity (% ± SD) at 32 µM” value [8] was 0.23 ± 0.10% and the “Hemolytic activity (% ± SD) at 64 µM” value [8] was 0.68 ± 0.17%. For the same molecule, the “Hemolytic activity (% ± SD) at 128 µM” value [8] was 4.56 ± 0.58% and the “Hemolytic activity … (%) SC50” value [8] was over 128 µM.
For “GLWSTIKQKGKEAAIAAAKAAGQAALGAL-NH2 [DS01, Dermaseptin DS01, reference compound]”, the IC50 [9] was 128 µM, the “Inhibitory concentration IC95” value [9] was 256 µM and the “Hemolytic activity (% ± SD) at 1 µM” value [8] was 0.00 ± 0.00%. For the same molecule, the “Hemolytic activity (% ± SD) at 2 µM” value [8] was 0.19 ± 0.02%, the “Hemolytic activity (% ± SD) at 4 µM” value [8] was 0.17 ± 0.04% and the “Hemolytic activity (% ± SD) at 8 µM” value [8] was 0.03 ± 0.01%. The “Hemolytic activity (% ± SD) at 16 µM” value [8] was 0.48 ± 0.12%, the “Hemolytic activity (% ± SD) at 32 µM” value [8] was 0.79 ± 0.30% and the “Hemolytic activity (% ± SD) at 64 µM” value [8] was 3.70 ± 1.34%. The “Hemolytic activity … (%) SC50” value [8, 10] was over 128 µM.
For GSLHGFMYKYLKNMVLNLF-NH2 [Tc06], the IC50 [9] was 32 µM, the “Inhibitory concentration IC95” value [9] was 64 µM and the “Hemolytic activity (% ± SD) at 1 µM” value [8] was 0.00 ± 0.00%. The “Hemolytic activity (% ± SD) at 2 µM” value [8] was 0.00 ± 0.00%, the “Hemolytic activity (% ± SD) at 4 µM” value [8] was 0.00 ± 0.00% and the “Hemolytic activity (% ± SD) at 8 µM” value [8] was 0.00 ± 0.00%. For the same molecule, the “Hemolytic activity (% ± SD) at 16 µM” value [8] was 0.01 ± 0.00%, the “Hemolytic activity (% ± SD) at 32 µM” value [8] was 0.77 ± 0.23% and the “Hemolytic activity (% ± SD) at 64 µM” value [8] was 1.18 ± 0.23%. For the same molecule, the “Hemolytic activity (% ± SD) at 128 µM” value [8] was 7.67 ± 1.69% and the “Hemolytic activity … (%) SC50” value [8] was over 128 µM.
With GSLHGFMYKYLKTLVLRLY-NH2 [Zm01] the “Minimum inhibitory concentration, Bacillus cereus” value [3] was 64.0 µM, the “Minimum inhibitory concentration, Staphylococcus aureus” value [4] was 16 µM and the “Minimum inhibitory concentration, Pseudomonas aeruginosa” value [5] was 16.0 µM. The “Minimum inhibitory concentration, Candida albicans” value [1] was 6.67 ± 2.31 µM, the “Minimum inhibitory concentration, Escherichia coli” value [6] was 13.33 ± 4.61 µM and the “Minimum inhibitory concentration, Cryptococcus neoformans” value [2] was 4.0 µM. For the same molecule, the “Minimum inhibitory concentration, Bacillus subtilis” value [7] was 8.0 µM, the “Hemolytic activity (% ± SD) at 1 µM” value [8] was 0.00 ± 0.00% and the “Hemolytic activity (% ± SD) at 2 µM” value [8] was 0.02 ± 0.00%. For the same molecule, the “Hemolytic activity (% ± SD) at 4 µM” value [8] was 0.00 ± 0.00%, the “Hemolytic activity (% ± SD) at 8 µM” value [8] was 0.00 ± 0.00% and the “Hemolytic activity (% ± SD) at 16 µM” value [8] was 0.66 ± 0.14%. The “Hemolytic activity (% ± SD) at 32 µM” value [8] was 2.45 ± 1.03%, the “Hemolytic activity (% ± SD) at 64 µM” value [8] was 6.56 ± 1.87% and the “Hemolytic activity (% ± SD) at 128 µM” value [8] was 15.72 ± 3.48%. The “Hemolytic activity … (%) SC50” value [8] was over 128 µM.
In the case of IVNHLVKLFDKGLNSIVNLR-NH2 [Tc05], the IC50 [9] is reported as 128 µM, the “Inhibitory concentration IC95” value [9] is reported as 256 µM and the “Hemolytic activity (% ± SD) at 1 µM” value [8] is reported as 0.11 ± 0.02%. The “Hemolytic activity (% ± SD) at 2 µM” value [8] was 0.07 ± 0.01%, the “Hemolytic activity (% ± SD) at 4 µM” value [8] was 0.15 ± 0.05% and the “Hemolytic activity (% ± SD) at 8 µM” value [8] was 0.07 ± 0.04%. The “Hemolytic activity (% ± SD) at 16 µM” value [8] was 0.50 ± 0.10%, the “Hemolytic activity (% ± SD) at 32 µM” value [8] was 0.21 ± 0.09% and the “Hemolytic activity (% ± SD) at 64 µM” value [8] was 0.78 ± 0.47%. For the same molecule, the “Hemolytic activity … (%) SC50” value [8, 10] was over 128 µM.
